The results in this text go back to patent publication US11839613B2, “Pyrimidine derivatives as PGE2 receptor modulators” (IDORSIA PHARMACEUTICALS LTD, priority 2017, dated 2023).

Test [1] deals with EP4 (Homo sapiens (Human), UniProt P35408). Description: hEP4 cAMP assay (BT549 breast cancer cells, HTRF cAMP). Type of test: cell-based. Conditions: antagonistic activity, PGE2 6 nM. Summed up: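 BT549 breast cancer cells (endogenous EP4) in HBSS/20 mM HEPES/0.2% BSA/2 mM IBMX preincubated 45 min at RT with compound, then stimulated 30 min at RT with 6 nM PGE2 (final). cAMP read by competitive HTRF immunoassay, signal inversely proportional to cAMP.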
Chain of EP4 (P35408 whole entry): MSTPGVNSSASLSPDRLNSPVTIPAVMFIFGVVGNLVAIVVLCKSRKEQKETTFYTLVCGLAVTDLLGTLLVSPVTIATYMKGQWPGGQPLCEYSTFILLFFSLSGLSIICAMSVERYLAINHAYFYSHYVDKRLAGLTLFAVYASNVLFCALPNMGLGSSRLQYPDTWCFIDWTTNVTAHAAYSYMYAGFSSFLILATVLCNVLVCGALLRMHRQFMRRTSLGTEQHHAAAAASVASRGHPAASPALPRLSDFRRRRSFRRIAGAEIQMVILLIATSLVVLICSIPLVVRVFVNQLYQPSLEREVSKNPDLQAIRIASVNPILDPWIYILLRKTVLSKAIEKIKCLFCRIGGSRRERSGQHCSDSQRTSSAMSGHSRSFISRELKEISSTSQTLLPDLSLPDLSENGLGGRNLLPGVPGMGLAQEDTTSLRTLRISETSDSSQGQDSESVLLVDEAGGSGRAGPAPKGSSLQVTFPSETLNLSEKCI
In general terms: cAMP levels reflect the balance of adenylyl cyclase and phosphodiesterase activity.

Test [2] concerns the target PTGER4 (EP4) (Homo sapiens (Human), UniProt P35408). Nature of the test: cell-based.
Test [3] deals with PTGER2 (EP2) (Homo sapiens (Human), UniProt P43116). Nature of the test: hEP2 b-arrestin assay (PathHunter HEK 293 PTGER2 b-arrestin cells). Type of test: cell-based. To be noted: antagonistic activity, beta-arrestin assay; read-out: hEP2 b-arr IC50. How it is done: Plate is pre-incubated 15 minutes at 37° C. Then five microliters of PGE2 (final conc. 5 μM) are transferred into the assay plate. Plate is incubated 120 minutes at 37° C.
Chain of PTGER2 (EP2) (P43116 whole entry): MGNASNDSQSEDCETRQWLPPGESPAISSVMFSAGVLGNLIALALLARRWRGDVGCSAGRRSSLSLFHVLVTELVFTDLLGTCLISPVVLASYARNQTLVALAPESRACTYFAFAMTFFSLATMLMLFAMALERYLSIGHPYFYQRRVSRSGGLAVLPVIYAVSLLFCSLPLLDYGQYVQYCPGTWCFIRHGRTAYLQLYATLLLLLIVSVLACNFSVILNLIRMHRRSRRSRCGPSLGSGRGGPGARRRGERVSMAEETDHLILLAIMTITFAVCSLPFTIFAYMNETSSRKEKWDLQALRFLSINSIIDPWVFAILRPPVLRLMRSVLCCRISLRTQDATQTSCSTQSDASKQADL
(each concentration is measured in duplicate)

The target of test [4] is EP2 (Homo sapiens (Human), UniProt P43116). Description: hEP2 cAMP assay (SF295 glioblastoma cells, HTRF cAMP). The test is classed as cell-based. Conditions: antagonistic activity. The gist of the method:
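PGE2-driven cAMP accumulation was measured by HTRF in SF295 cells, which express endogenous EP2 only. Cells in assay buffer with 2 mM IBMX were pre-incubated 45 min at RT, then incubated 30 min at RT. Detection used competition between cellular cAMP and d2-cAMP for a cryptate anti-cAMP antibody.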

In general, IC50 refers to the concentration at which inhibition is half-maximal.

Chain of PTGER4 (EP4) (P35408 whole entry): as the sequence (P35408 whole entry) above
Chain of EP2 (P43116 whole entry): as the sequence (P43116 whole entry) above

As to `Cc1c(CCNc2cc(-c3ccc(C(=O)O)c(OC4CCC4)c3)ncn2)ccc2ccccc12` [Ex 168], the IC50 in test [1] worked out at 168 nM; in test [2], 128 nM; in test [3], 151 nM; in test [4], 214 nM.

As to `CCOc1cc(-c2cc(NCCc3cc4c(cc3C)OCCO4)ncn2)ccc1OCC(=O)O` [Ex 184, (2-Ethoxy-4-{6-[2-(7-methyl-2,3-dihydro-benzo[1,4]dioxin-6-yl)-ethylamino]-pyrimidin-4-yl}-phenoxy)-acetic acid], the IC50 was 200 nM in test [1], 378 nM in test [2], 171 nM in test [3] and 164 nM in test [4].

On to `CSc1cc(-c2cc(NCCc3ccc4occc4c3)ncn2)ccc1C(=O)O` [Ex 248, 4-[6-(2-Benzofuran-5-yl-ethylamino)-pyrimidin-4-yl]-2-methylsulfanyl-benzoic acid], for which the IC50 in test [1] is 366 nM; in test [2], 270 nM; in test [3], 132 nM; in test [4], 50 nM.

Consider `CCOc1cc(-c2cc(NCCc3c(OC)cc4occc4c3C)ncn2)sc1C(=O)O` [Ex 8, 3-Ethoxy-5-{6-[2-(6-methoxy-4-methyl-benzofuran-5-yl)-ethylamino]-pyrimidin-4-yl}-thiophene-2-carboxylic acid], for which the IC50 in test [1] came to 6 nM; in test [2], 22 nM; in test [3], 5 nM; in test [4], 1 nM.

Turning to `CCOc1cc(-c2cc(NCCc3cc4ccsc4cc3C)ncn2)ccc1C(=O)O` [Ex 254, 2-Ethoxy-4-{6-[2-(6-methyl-benzo[b]thiophen-5-yl)-ethylamino]-pyrimidin-4-yl}-benzoic acid], the IC50 turned out to be 379 nM in test [1], 864 nM in test [2], 45 nM in test [3] and 70 nM in test [4].

For `CCOc1cc(-c2cc(NCCc3cc4ccccc4cc3OC)ncn2)sc1C(=O)O` [Ex 9, 3-Ethoxy-5-{6-[2-(3-methoxy-naphthalen-2-yl)-ethylamino]-pyrimidin-4-yl}-thiophene-2-carboxylic acid], the IC50 in test [1] was found to be 6 nM; in test [2] it was 6 nM; in test [3], 59 nM; in test [4], 67 nM.

Turning to `CCc1cc(-c2cc(NCCc3cc(F)c4sccc4c3)ncn2)sc1C(=O)O` [Example 455, 3-Ethyl-5-{6-[2-(7-fluoro-benzo[b]thiophen-5-yl)-ethylamino]-pyrimidin-4-yl}-thiophene-2-carboxylic acid], the half-maximal inhibitory concentration (IC50) in test [1] (BT549 cells) came to 38 nM; in test [2] it was 18 nM; in test [3] it was 271 nM; in test [4] it was 250 nM.

`CCOc1cc(-c2cc(NCCc3cc4c(cc3OC)OCO4)ncn2)ccc1CC(=O)O` [Ex 299]: the IC50 in test [1] came out at 444 nM; in test [2] it was 367 nM; in test [3], 307 nM; in test [4], 250 nM.

Take `COc1cc2c(cc1CCNc1cc(-c3ccc(C(=O)O)c(SC)c3)ncn1)OCO2` [Ex 277, 4-{6-[2-(6-Methoxy-benzo[1,3]dioxol-5-yl)-ethylamino]-pyrimidin-4-yl}-2-methylsulfanyl-benzoic acid]: the IC50 in test [1] was determined as 324 nM; in test [2] it was 437 nM; in test [3], 51 nM; in test [4] it was 14 nM.

For `O=C(O)c1ccc(-c2cc(NCCc3ccc4sccc4c3)ncn2)cc1OC1CCC1` [Ex 125, 4-[6-(2-Benzo[b]thiophen-5-yl-ethylamino)-pyrimidin-4-yl]-2-cyclobutoxy-benzoic acid], the IC50 in test [1] was 99 nM; in test [2], 226 nM; in test [3], 116 nM; in test [4], 129 nM.

Regarding `CCOc1cc(-c2cc(NCCc3ccc4scc(C)c4c3)ncn2)ccc1OCC(=O)O` [Example 466, (2-Ethoxy-4-{6-[2-(3-methyl-benzo[b]thiophen-5-yl)-ethylamino]-pyrimidin-4-yl}-phenoxy)-acetic acid], the IC50 was found to be 1210 nM in test [1] (BT549 cells), 171 nM in test [2], 206 nM in test [3] and 190 nM in test [4].

With `CCOc1cc(-c2cc(NCCc3ccc4cc[nH]c4c3)ncn2)sc1C(=O)O` [Ex 24, 3-Ethoxy-5-{6-[2-(1H-indol-6-yl)-ethylamino]-pyrimidin-4-yl}-thiophene-2-carboxylic acid], the IC50 in test [1] came to 15 nM; in test [2], 18 nM; in test [3], 72 nM; in test [4] it was 52 nM.

For `C#Cc1cc2ccccc2cc1CCNc1cc(-c2ccc(C(=O)O)c(OCC)c2)ncn1` [Ex 105, 2-Ethoxy-4-{6-[2-(3-ethynyl-naphthalen-2-yl)-ethylamino]-pyrimidin-4-yl}-benzoic acid], the concentration for half-maximal inhibition (IC50) was 73 nM in test [1], 53 nM in test [2], 40 nM in test [3] and 76 nM in test [4].

For the compound `CCOc1cc(-c2cc(NCCc3cc4c(cc3OC)OCCO4)ncn2)ccc1OC(C)C(=O)O` (stereo not drawn) [Ex 201], the IC50 in test [1] came out at 229 nM; in test [2], 111 nM; in test [3], 83 nM; in test [4], 133 nM.

With `CCCCOc1cc(-c2cc(NCCc3ccc4ccccc4c3C)ncn2)ccc1C(=O)O` [Ex 169, 2-Butoxy-4-{6-[2-(1-methyl-naphthalen-2-yl)-ethylamino]-pyrimidin-4-yl}-benzoic acid], the IC50 in test [1] came out at 168 nM; in test [2] it was 269 nM; in test [3] it was 141 nM; in test [4] it was 125 nM.

In the case of `CCCCOc1cc(-c2cc(NCCc3cc(F)c4sccc4c3)ncn2)ccc1C(=O)O` [Example 454, 2-Butoxy-4-{6-[2-(7-fluoro-benzo[b]thiophen-5-yl)-ethylamino]-pyrimidin-4-yl}-benzoic acid], the IC50 in test [1] (BT549 cells) worked out at 225 nM; in test [2], 212 nM; in test [3], 88 nM; in test [4], 608 nM.

Take `CCOc1cc(-c2cc(NCCc3ccc4scc(C)c4c3)ncn2)ccc1C(=O)O` [Example 465, 2-Ethoxy-4-{6-[2-(3-methyl-benzo[b]thiophen-5-yl)-ethylamino]-pyrimidin-4-yl}-benzoic acid]: the IC50 amounted to 1400 nM in test [1] (BT549 cells), 827 nM in test [2], 313 nM in test [3] and 245 nM in test [4].

Turning to `O=C(O)c1cc2cc(-c3cc(NCCc4ccc5sccc5c4)ncn3)ccc2o1` [Ex 38, 5-[6-(2-Benzo[b]thiophen-5-yl-ethylamino)-pyrimidin-4-yl]-benzofuran-2-carboxylic acid], the IC50 turned out to be 28 nM in test [1], 123 nM in test [2], 226 nM in test [3] and 210 nM in test [4].

As to `CCc1nc(-c2cc(NCCc3ccc4ccccc4c3C)ncn2)sc1C(=O)O` [Example 351, 4-Ethyl-2-{6-[2-(1-methyl-naphthalen-2-yl)-ethylamino]-pyrimidin-4-yl}-thiazole-5-carboxylic acid], the IC50 in test [1] amounted to 167 nM; in test [2], 79 nM; in test [3], 475 nM; in test [4] it was 236 nM.

In the case of `CCCc1cc(-c2cc(NCCc3cc4ccsc4cc3OC)ncn2)ccc1CC(=O)O` [Example 385, (4-{6-[2-(6-Methoxy-benzo[b]thiophen-5-yl)-ethylamino]-pyrimidin-4-yl}-2-propyl-phenyl)-acetic acid], the IC50 in test [1] came to 134 nM; in test [2] it was 71 nM; in test [3] it was 30 nM; in test [4], 180 nM.

For the compound `CCOc1cc(-c2cc(NCCc3ccc4c(c3)OCO4)ncn2)sc1-c1noc(=O)[nH]1` [Example 344, 3-{5-[6-(2-Benzo[1,3]dioxol-5-yl-ethylamino)-pyrimidin-4-yl]-3-ethoxy-thiophen-2-yl}-[1,2,4]oxadiazol-5(4H)-one], the 50% inhibitory concentration (IC50) in test [1] amounted to 14 nM; in test [2], 39 nM; in test [3], 33 nM; in test [4], 33 nM.

Turning to `CCOc1cc2c(cc1CCNc1cc(-c3ccc(CC(=O)O)c(OCC)c3)ncn1)OCCO2` [Ex 192, (2-Ethoxy-4-{6-[2-(7-ethoxy-2,3-dihydro-benzo[1,4]dioxin-6-yl)-ethylamino]-pyrimidin-4-yl}-phenyl)-acetic acid], the IC50 in test [1] came out at 210 nM; in test [2], 153 nM; in test [3] it was 76 nM; in test [4], 69 nM.

`CCOc1cc(-c2cc(NCCc3cc4occc4cc3OC)ncn2)ccc1OCC(=O)O` [Ex 159, (2-Ethoxy-4-{6-[2-(5-methoxy-benzofuran-6-yl)-ethylamino]-pyrimidin-4-yl}-phenoxy)-acetic acid]: the IC50 was 157 nM in test [1], 140 nM in test [2], 180 nM in test [3] and 179 nM in test [4].

Turning to `CCOc1cc2c(cc1CCNc1cc(-c3ccc(C(=O)O)c(OC4CCC4)c3)ncn1)OCCO2` [Ex 196, 2-Cyclobutoxy-4-{6-[2-(7-ethoxy-2,3-dihydro-benzo[1,4]dioxin-6-yl)-ethylamino]-pyrimidin-4-yl}-benzoic acid], the IC50 came out at 217 nM in test [1], 199 nM in test [2], 21 nM in test [3] and 37 nM in test [4].
